# According to patent publication US11198680B2 (BioAxone BioSciences, Inc., priority 2016, dated 2021):
# Like-named read-outs stand apart in the source and are kept apart here.
# What was measured:
# [1] = tested on: hBMVEC monolayer; assay: LPA-treated hBMVECs, endothelial monolayer integrity; format: cell-based, human; conditions: 1 μM or 10 μM, 20 μM LPA, Example 16, present tense
# Protocol: Cells are exposed to each dose for 1 hr, and are then stimulated with 20 μM LPA for either 5 min or 1 hr as described below. All experiments are conducted in triplicate and analyzed by 2 independent assessors blinded to both cell line and treatment.
# To examine hBMVECs monolayer integrity, cells are plated on PDL-coated coverslips (Corning) coated with Fibronectin, Collagen-1 and gelatin. 50,000 cells are seeded on each coverslip situated in a 24-well plate. Cells are grown for 3 days in ENDO-growth media (Neuromics) at 37° C./5% CO2. […] The medium is exchanged for ENDO basal media supplemented with 1% HSA, 20 μM of LPA (Santa Cruz Biotech; Santa Cruz, Calif.) and the appropriate amount of compound being tested. After 60 min, cells were fixed with 4% paraformaldehyde and stained for actin-phalloidin (ThermoFisher) and V-Cadherin (Cell Signaling), and then were mounted on microscope slides. Coverslips were imaged by fluorescence microscopy and the cell-free holes in the monolayer are measured using Image J. 3.
# [2] = target: SERT (serotonin transporter) (Homo sapiens (Human), UniProt P31645); assay: SAFETYscan neurotransmitter transporter activity; format: cell-based
# Protocol: (§1) The SAFETYscan™ (DiscoverX) is used for rapid testing of any compound against a panel that includes well-known membrane proteins of importance for drug development such as selected voltage-gated ion channels, G-protein coupled receptors, neurotransmitter transporters and also a selected group of purified cellular enzymes.
# (§2) Cell lines engineered to express individual transmembrane receptor proteins such as the muscarinic acetylcholine receptor or the dopamine D1 receptor were grown in culture in their standard growth medium until reaching confluence. […] The experiment also contains controls for comparison including known agonists and antagonists of the targeted membrane proteins.
# [3] = target: NET (norepinephrine transporter) (Homo sapiens (Human), UniProt P23975); assay: SAFETYscan neurotransmitter transporter activity; format: cell-based
# Protocol: as §1, §2
# [4] = Brain concentration after IV BA-1049 (R), LC-MS/MS; format: in vivo; conditions: mouse
# Protocol: Mice are dosed either by intravenous (IV) administration or oral (PO) administration via oral gavage.
# After IV dosing, brains are collected from 4 mice at each time point: 0.083 hr, 0.5 hr, 2 hr, 6 hr, 12 hr, and 24 hr after dose. Each mouse is euthanized by CO2. The entire brains are removed, weighed, rinsed with PBS, placed in tubes, and snap frozen in liquid nitrogen.
# Brain tissue was homogenized in 1 mL/g PBS. Brain homogenates are precipitated by pipetting 200 μL of homogenate into a tube using aseptically cut off 1000 μL pipette tips to prevent clogging.
# [5] = tested on: intracellular ROCK activity (ppMLC2 T18/S19) in HUVECs; assay: HUVEC ppMLC2 dose-response; format: cell-based, human; conditions: for EC50: 1 h exposure, read-out: EC50 for reduction of MLC2 diphosphorylation; for maximum reduction of ppMLC2 levels: highest dose tested 1 mM, 1 h
# Protocol: Cells were exposed to each dose for 1 h. All experiments were conducted in triplicate and analyzed by 2 independent assessors blinded to the compound and compound concentration.
# Cells were subjected to biochemical protein analysis of di-phosphorylated MLC2 (Threonine 18/Serine 19 phosphorylation sites) using SDS-PAGE and immunoblotting. Cells were plated in a 24-well tissue culture plates, coated with 70 μg/ml rat collagen-1 (Corning) and grown for 2-3 days at 37° C./5% CO2 until confluency. […] Drugs were diluted in Medium 200 (Thermo Fisher Scientific) supplemented with 0.1% human serum albumin (HSA, Sigma-Aldrich). After 1 h, cells were lysed with RIPA buffer (Boston Bioproducts; Ashland, Mass.) supplemented with complete protease/phosphatase inhibitors (HALT, Thermo Fisher Scientific), reduced, and denatured with Laemmli sample buffer (BioRad)/beta-mercaptoethanol. Denatured samples were electrophoresed in reducing 10% Bis-Tris-PA gels (Novex) and then transferred onto 0.25 μm PVDF membranes (EMD Millipore). Membranes were incubated with 4% bovine serum albumin solution to block unspecific antibody binding sites and then immunolabeled for ppMLC2 T18/S19 (1:500, Cell Signaling) and glyceraldehyde 3-phosphate dehydrogenase loading control (GAPDH, 1:10,000; Abcam). Protein levels were detected using a chemiluminescence substrate (Super Signal West, ThermoFisher) and were captured with FluoroChem SP imaging system. Chemiluminescence of ppMLC2 and GAPDH was measured by densitometric analysis. ppMLC2 signal was normalized against GAPDH signal plotted as percentage of no treatment control (0 μM). EC50 values were determined by dose-response analysis using GraphPad software.
# [6] = target: MARK4 (Homo sapiens (Human), UniProt Q96L34); assay: KINOMEscan kinome screen; conditions: percent of negative control binding
# Description: (§3) The KINOMEscan™ screening platform (DiscoverX, Fremont, Calif.) employs a novel active site-directed competition binding assay to quantitatively measure interactions between test compounds and more than 450 human kinases and disease relevant mutant variants. […] Compounds that bind the kinase active site and directly (sterically) or indirectly (allosterically) prevent kinase binding to the immobilized ligand, will reduce the amount of kinase captured on the solid support. […] Screening “hits” are identified by measuring the amount of kinase captured in test versus control samples by using a quantitative, precise and ultra-sensitive qPCR method that detects the associated DNA label.
# (§4) Kinase-tagged T7 phage strains were grown in parallel in 24-well blocks in an E. coli host derived from the BL21 strain. E. coli were grown to log-phase and infected with T7 phage from a frozen stock (multiplicity of infection=0.4) and incubated with shaking at 32° C. until lysis (90-150 minutes). The lysates were centrifuged (6,000×g) and filtered (0.2 μm) to remove cell debris. The remaining kinases were produced in HEK-293 cells and subsequently tagged with DNA for qPCR detection (Wein, et al. (2016) Nat. Comm. 7). […] Test compounds were prepared as 40× stocks in 100% DMSO and directly diluted into the assay. All reactions were performed in polypropylene 384-well plates in a final volume of 0.02 ml.
# [7] = target: MARK3 (Homo sapiens (Human), UniProt P27448); assay: KINOMEscan kinome screen; conditions: percent of negative control binding
# Description: as §3, §4
# [8] = target: SLK (Homo sapiens (Human), UniProt Q9H2G2); assay: KINOMEscan kinome screen; conditions: percent of negative control binding
# Description: as §3, §4
# [9] = target: MEK1 (Homo sapiens (Human), UniProt Q02750); assay: KINOMEscan kinome screen; conditions: percent of negative control binding
# Description: as §3, §4
# [10] = target: MEK2 (Homo sapiens (Human), UniProt P36507); assay: KINOMEscan kinome screen; conditions: percent of negative control binding
# Description: as §3, §4
# [11] = target: IRAK3 (Homo sapiens (Human), UniProt Q9Y616); assay: KINOMEscan kinome screen; conditions: percent of negative control binding
# Description: as §3, §4
# [12] = target: MARK1 (Homo sapiens (Human), UniProt Q9P0L2); assay: KINOMEscan kinome screen; conditions: percent of negative control binding
# Description: as §3, §4
# [13] = target: PRKCQ (Homo sapiens (Human), UniProt Q04759); assay: KINOMEscan kinome screen; conditions: percent of negative control binding
# Description: as §3, §4
# [14] = target: MARK2 (Homo sapiens (Human), UniProt Q7KZI7); assay: KINOMEscan kinome screen; conditions: percent of negative control binding
# Description: as §3, §4
# [15] = target: FGFR4 (Homo sapiens (Human), UniProt P22455); assay: KINOMEscan kinome screen; conditions: percent of negative control binding
# Description: as §3, §4
# [16] = target: ALK (Homo sapiens (Human), UniProt Q9UM73); assay: KINOMEscan kinome screen; conditions: percent of negative control binding
# Description: as §3, §4
# [17] = target: ROCK2 (Homo sapiens (Human), UniProt O75116); conditions: ratio of dissociation constants ROCK1/ROCK2
# Protocol: The assay is performed by combining the DNA-tagged kinase, immobilized ligand, and a test compound. The ability of the test compound to compete with the immobilized ligand is measured via quantitative PCR of the DNA tag.
# The highest concentration tested was 30 μM.
# [18] = Daily repeat dosing for 2 weeks in normal mice, adverse effects; format: in vivo, mouse
# Protocol: In a separate set of experiments, daily repeat dosing experiments were performed to assess adverse effects. […] During the course of the experiment, animals were monitored daily for the appearance of any clinical signs. Hematology, blood chemistry, and histopathology were followed at termination of the experiment.
# [19] = target: ROCK1 (Homo sapiens (Human), UniProt Q13464); assay: Direct filter-binding radiometric kinase assay, IC50 determination; format: biochemical
# Protocol: Variations in ATP concentrations were tested to better understand potential selectivity in ischemic and diseased tissue where ATP concentrations may be low and impact selectivity.
# […] Both services use a direct filter-binding, radiometric kinase assay with slight variation in protocol.
# The top concentration tested was 100 μM for both services. Test compounds were prepared in 100% DMSO at 50× final test concentration and were diluted to 1× in the assay with a final DMSO concentration of 2%.
# For one assay, the substrate […] (SEQ ID NO:1) (30 μM) was mixed with reaction buffer (Table 4) and the kinase domain from either the ROCK1 or ROCK2 (as indicated in Table 4). Next, the compounds (in DMSO) were delivered into the mixture via acoustic mixing technology (Echo550, nanoliter range) (SelectScience, Waltham, Mass.), and incubated at RT for 20 min. […] Reactions were then spotted onto P81 ion exchange paper followed by scintillation counting.
# The reaction was stopped by the addition of 3% phosphoric acid and 10 μL of the reaction was spotted onto P30 filtermat, washed 3 times in 75 mM phosphoric acid and once in methanol prior to scintillation counting.
# Chain of ROCK1 (Q13464 2-1354 limits assumed): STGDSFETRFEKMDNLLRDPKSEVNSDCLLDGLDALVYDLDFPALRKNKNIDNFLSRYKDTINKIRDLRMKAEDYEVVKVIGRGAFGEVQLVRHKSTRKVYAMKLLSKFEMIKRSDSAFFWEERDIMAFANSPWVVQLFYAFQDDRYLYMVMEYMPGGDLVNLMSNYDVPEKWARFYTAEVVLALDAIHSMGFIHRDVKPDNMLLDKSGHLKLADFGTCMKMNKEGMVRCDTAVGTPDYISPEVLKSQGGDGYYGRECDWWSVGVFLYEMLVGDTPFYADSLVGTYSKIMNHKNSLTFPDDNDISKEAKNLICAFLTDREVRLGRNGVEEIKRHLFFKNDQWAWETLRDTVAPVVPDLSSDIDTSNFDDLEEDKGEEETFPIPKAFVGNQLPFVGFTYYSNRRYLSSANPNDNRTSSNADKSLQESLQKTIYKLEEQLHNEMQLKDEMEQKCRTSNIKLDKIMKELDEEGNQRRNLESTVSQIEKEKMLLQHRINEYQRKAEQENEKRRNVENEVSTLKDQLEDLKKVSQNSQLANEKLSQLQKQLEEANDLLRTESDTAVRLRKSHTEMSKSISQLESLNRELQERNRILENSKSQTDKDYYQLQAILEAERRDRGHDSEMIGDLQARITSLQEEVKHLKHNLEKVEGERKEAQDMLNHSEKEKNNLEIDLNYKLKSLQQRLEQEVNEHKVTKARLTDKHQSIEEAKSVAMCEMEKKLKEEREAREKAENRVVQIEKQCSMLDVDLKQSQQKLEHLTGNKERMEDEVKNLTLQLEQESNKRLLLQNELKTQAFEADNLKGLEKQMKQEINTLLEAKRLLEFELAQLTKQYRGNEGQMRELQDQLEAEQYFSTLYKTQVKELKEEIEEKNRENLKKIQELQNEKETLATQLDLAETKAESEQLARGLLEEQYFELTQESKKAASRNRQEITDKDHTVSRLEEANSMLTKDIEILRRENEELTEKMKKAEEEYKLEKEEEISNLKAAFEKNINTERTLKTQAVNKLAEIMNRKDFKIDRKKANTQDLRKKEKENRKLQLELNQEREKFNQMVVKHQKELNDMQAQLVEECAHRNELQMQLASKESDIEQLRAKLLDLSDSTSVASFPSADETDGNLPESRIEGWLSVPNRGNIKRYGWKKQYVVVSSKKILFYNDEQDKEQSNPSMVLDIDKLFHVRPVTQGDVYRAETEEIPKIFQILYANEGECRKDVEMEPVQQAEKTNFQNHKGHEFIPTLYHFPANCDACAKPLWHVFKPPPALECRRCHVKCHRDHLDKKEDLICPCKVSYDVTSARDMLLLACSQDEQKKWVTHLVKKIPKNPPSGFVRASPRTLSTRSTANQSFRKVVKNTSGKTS
# Chain of IRAK3 (Q9Y616 whole entry): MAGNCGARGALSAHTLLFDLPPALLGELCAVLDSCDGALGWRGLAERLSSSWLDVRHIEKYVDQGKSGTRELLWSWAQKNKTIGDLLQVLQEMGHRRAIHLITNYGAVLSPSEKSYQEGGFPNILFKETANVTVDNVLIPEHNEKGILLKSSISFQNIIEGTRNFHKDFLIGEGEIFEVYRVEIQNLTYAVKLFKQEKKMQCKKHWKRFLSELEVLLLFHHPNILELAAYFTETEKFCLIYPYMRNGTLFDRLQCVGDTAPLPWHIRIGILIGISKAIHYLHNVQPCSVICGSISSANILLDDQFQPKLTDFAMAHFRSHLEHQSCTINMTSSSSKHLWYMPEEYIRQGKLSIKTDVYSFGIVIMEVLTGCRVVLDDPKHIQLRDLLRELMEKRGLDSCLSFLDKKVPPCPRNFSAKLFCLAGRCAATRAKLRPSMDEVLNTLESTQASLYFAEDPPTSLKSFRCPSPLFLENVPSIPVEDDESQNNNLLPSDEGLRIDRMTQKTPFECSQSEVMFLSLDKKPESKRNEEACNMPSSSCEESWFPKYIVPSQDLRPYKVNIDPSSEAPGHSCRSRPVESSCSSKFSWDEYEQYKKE
# Chain of MARK4 (Q96L34 whole entry): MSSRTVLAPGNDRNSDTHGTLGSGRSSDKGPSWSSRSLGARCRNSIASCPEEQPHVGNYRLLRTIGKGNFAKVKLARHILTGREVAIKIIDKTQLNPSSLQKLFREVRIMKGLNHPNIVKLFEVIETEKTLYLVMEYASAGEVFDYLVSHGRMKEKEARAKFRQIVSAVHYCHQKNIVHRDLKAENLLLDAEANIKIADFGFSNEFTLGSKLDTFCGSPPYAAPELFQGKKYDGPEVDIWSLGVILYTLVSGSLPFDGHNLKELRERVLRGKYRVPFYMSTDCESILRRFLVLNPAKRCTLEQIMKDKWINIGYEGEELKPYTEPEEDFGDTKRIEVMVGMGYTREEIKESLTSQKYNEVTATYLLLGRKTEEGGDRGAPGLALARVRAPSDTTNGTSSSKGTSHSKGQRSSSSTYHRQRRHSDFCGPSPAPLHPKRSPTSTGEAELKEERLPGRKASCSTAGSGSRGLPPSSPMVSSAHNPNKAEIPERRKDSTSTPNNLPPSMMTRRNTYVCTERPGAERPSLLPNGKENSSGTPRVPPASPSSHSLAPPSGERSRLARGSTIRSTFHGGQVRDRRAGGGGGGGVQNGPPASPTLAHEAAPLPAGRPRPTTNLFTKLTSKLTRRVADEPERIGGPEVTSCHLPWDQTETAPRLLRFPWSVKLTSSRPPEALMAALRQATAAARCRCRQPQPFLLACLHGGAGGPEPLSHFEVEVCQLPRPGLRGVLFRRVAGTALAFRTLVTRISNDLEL
# Chain of FGFR4 (P22455 22-802): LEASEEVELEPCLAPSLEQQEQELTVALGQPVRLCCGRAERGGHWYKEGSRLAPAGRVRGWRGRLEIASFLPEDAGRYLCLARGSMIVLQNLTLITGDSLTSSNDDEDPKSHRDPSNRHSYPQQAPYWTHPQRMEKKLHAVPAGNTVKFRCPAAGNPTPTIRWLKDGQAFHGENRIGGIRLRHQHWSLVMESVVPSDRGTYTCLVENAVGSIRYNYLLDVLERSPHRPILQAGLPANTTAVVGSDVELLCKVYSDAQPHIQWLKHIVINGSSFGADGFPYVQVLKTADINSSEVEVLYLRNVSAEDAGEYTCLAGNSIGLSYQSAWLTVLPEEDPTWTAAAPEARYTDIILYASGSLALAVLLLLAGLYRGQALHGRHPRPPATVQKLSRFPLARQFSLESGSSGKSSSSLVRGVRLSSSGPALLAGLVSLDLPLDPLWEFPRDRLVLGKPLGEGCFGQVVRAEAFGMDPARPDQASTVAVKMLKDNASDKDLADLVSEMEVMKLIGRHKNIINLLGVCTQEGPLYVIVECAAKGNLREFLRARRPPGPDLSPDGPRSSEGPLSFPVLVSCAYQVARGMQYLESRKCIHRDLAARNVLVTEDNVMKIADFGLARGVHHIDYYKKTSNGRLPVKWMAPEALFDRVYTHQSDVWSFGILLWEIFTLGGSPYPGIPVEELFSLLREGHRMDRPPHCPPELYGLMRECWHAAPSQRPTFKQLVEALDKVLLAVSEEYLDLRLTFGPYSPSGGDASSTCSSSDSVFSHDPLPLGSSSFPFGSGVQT
# Chain of SLK (Q9H2G2 whole entry): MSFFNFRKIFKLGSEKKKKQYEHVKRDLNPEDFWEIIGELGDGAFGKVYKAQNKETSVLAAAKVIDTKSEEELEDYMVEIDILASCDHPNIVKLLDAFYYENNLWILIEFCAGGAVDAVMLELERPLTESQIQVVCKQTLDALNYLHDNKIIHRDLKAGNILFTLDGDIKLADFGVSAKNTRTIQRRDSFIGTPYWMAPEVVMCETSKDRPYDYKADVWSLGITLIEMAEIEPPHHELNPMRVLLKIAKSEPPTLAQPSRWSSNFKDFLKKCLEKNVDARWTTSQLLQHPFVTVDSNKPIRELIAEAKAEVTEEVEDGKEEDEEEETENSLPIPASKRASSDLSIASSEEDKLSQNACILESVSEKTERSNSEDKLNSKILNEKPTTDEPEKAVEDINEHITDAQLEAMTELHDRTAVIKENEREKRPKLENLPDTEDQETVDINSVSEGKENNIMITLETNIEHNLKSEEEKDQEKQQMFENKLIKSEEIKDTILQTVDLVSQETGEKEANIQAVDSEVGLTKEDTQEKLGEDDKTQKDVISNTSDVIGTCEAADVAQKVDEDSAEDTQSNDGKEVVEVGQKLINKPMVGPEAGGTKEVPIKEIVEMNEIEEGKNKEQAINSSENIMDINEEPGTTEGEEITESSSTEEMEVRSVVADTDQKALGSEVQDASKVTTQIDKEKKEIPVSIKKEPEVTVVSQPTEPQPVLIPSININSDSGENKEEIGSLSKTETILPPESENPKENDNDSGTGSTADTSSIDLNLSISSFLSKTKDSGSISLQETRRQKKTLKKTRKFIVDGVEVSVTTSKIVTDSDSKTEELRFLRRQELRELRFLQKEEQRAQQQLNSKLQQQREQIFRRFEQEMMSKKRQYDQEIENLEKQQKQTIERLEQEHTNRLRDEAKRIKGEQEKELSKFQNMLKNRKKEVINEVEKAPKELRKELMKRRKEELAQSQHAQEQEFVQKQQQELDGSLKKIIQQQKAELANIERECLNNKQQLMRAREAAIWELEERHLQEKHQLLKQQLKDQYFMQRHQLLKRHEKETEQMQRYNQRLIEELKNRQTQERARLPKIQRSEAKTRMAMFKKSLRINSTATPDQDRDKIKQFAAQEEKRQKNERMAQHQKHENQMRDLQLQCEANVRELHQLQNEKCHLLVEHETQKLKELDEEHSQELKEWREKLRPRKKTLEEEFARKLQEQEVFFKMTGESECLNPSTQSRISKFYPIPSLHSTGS
SMILES,maximum reduction of ppMLC2 levels [5] [%],"% Negative Binding, MARK4 [6] [%]","% Negative Binding, MARK3 [7] [%]","% Negative Binding, SLK [8] [%]","% Negative Binding, MEK1 [9] [%]","% Negative Binding, MEK2 [10] [%]","% Negative Binding, IRAK3 [11] [%]","% Negative Binding, MARK1 [12] [%]","% Negative Binding, PRKCQ [13] [%]","% Negative Binding, MARK2 [14] [%]","% Negative Binding, FGFR4 [15] [%]","% Negative Binding, ALK [16] [%]",other results
C[C@@H](N)C1CCN(S(=O)(=O)c2cccc3c(=O)[nH]ccc23)CC1 [1-hydroxy-BA-1049 (R)],94,92,81,100,100,97,96,69,66,100,100,81,"monolayer integrity / Rho/ROCK activation after LPA [1]: prevent Rho/ROCK activation; % Inhibition of Neurotransmitter Transporter Activity, SERT ([2]; 10 μM): 14%; % Inhibition of Neurotransmitter Transporter Activity, NET ([3]; 10 μM): 11%; time detectable in brain after administration ([4]; in vivo, iv, 5 mg/kg): < 12 h; EC50 [5]: 0.449 µM"
C[C@@H](N)C1CCN(S(=O)(=O)c2cccc3cnccc23)CC1 [BA-1049 (R)],89,94,100,70,99,99,92,67,74,100,100,94,"Fractional Selectivity for ROCK2 [17]: 1.86; inhibition at 10 µM ([2]; read-out: % Inhibition of Neurotransmitter Transporter Activity, SERT): 9%; inhibition at 10 µM [3]: 12%; findings in daily repeat dosing ([18]; 1 mg/kg and 10 mg/kg once daily I.P. for 2 weeks): no abnormal findings; no observed effect level dose ([18]; 2 week repeat dose, I.P.): 10 mg/kg; time detectable in brain after administration ([4]; 5 mg/kg BA-1049 (R) IV): at least 24 hr; IC50 ([19]; 10 μM ATP, Table 2, read-out: Compound IC50 ROCK1): 3.9 µM; IC50 ([19]; Compound IC50 ROCK1 10 μM ATP, CRO Eurofins, 10 μM ATP): 3.9 µM; IC50 ([19]; Compound IC50 ROCK1 10 μM ATP, CRO Reaction Biology, 10 μM ATP): 0.69 µM; IC50 ([19]; Compound IC50 ROCK1 70 μM ATP, Km ATP 70 μM, Table 3): 29.6 µM; IC50 ([19]; Compound IC50 ROCK1 70 μM ATP, Km ATP 70 μM, Table 7): 29.6 µM; EC50 ([5]; Homo sapiens, HUVEC): 3.83 µM"
